PubChem BioAssay (NCI)
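Following 48 hours of exposure in 96-well plates, responses at five concentrations were used to interpolate endpoints linearly. GI50 = concentration required for 50% inhibition of growth. The concentration for full growth arrest is given as TGI.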

What was measured:
Experiment in all cases: NCI tumour cell line growth inhibition, 48 h
OVCAR-5 ovarian = tested on: OVCAR-5 ovarian
HCT-116 colon = tested on: HCT-116 colon
MDA-MB-231 breast = tested on: MDA-MB-231 breast
UACC-257 melanoma = tested on: UACC-257 melanoma
NCI-H226 lung = tested on: NCI-H226 lung
SK-MEL-5 melanoma = tested on: SK-MEL-5 melanoma
SF-539 CNS = tested on: SF-539 CNS
MDA-MB-435 = tested on: MDA-MB-435
HOP-62 NSCLC = tested on: HOP-62 NSCLC
HS 578T breast = tested on: HS 578T breast

SMILES | GI50 (OVCAR-5 ovarian) | TGI (OVCAR-5 ovarian) | GI50 (HCT-116 colon) | TGI (HCT-116 colon) | GI50 (MDA-MB-231 breast) | TGI (MDA-MB-231 breast) | GI50 (UACC-257 melanoma) | TGI (UACC-257 melanoma) | GI50 (NCI-H226 lung) | TGI (NCI-H226 lung) | GI50 (SK-MEL-5 melanoma) | TGI (SK-MEL-5 melanoma) | GI50 (SF-539 CNS) | TGI (SF-539 CNS) | GI50 (MDA-MB-435) | TGI (MDA-MB-435) | GI50 (HOP-62 NSCLC) | TGI (HOP-62 NSCLC) | GI50 (HS 578T breast) | TGI (HS 578T breast)
Cc1cc(I)cc(CN(C)CCCN2CCN(C)CC2)c1O | 78.7 µM | > 100 µM | 12.6 µM | > 86.1 µM | 24.1 µM | > 68.3 µM | 35 µM | > 57.5 µM | 56.9 µM | > 100 µM | 16.1 µM | 29.9 µM | 16 µM | 33 µM | 14.4 µM | 31.4 µM | 17 µM | 36.3 µM | 23.6 µM | > 68.1 µM
CC#Cc1nc(Nc2cc(C)[nH]n2)c2ccccc2n1 | 5.69 µM | 30.7 µM | 3.66 µM | 39.4 µM | 2.85 µM | 9.34 µM | 5.52 µM | 20.9 µM | 2.21 µM | 11.1 µM | 1.76 µM | 3.61 µM | 3.81 µM | 17.6 µM | 3.18 µM | 13.3 µM | 12.4 µM | 39.7 µM | 2.28 µM | 8.41 µM
COc1ccc(Cn2cc3c(c2-c2cc(OC)c(OC)c(OC)c2)CCc2cnoc2-3)cc1 | 3.68 µM | > 100 µM | 0.386 µM | > 100 µM | 0.735 µM | > 100 µM | – | > 100 µM | 1.58 µM | > 100 µM | 0.276 µM | 4.99 µM | 0.283 µM | 2.39 µM | 0.0404 µM | 0.208 µM | 0.446 µM | > 100 µM | 0.238 µM | 0.805 µM
O=C1C(Cl)=C(Nc2cccc(O)c2)C(=O)N1Cc1ccc(Cl)cc1Cl | 11.7 µM | 29.2 µM | 2.01 µM | 12.4 µM | 1.17 µM | 11 µM | 8.76 µM | 21.5 µM | 1.11 µM | 20.4 µM | 0.84 µM | 5.64 µM | 0.561 µM | 13.8 µM | 6.72 µM | 19.5 µM | 14.4 µM | 30.5 µM | 1.66 µM | 21.8 µM
Cn1cc(C2=C(N3CCOCC3)C(=O)NC2=O)c2ccccc21 | > 25 µM | > 25 µM | > 25 µM | > 25 µM | > 25 µM | > 25 µM | > 25 µM | > 25 µM | > 25 µM | > 25 µM | > 25 µM | > 25 µM | > 25 µM | > 25 µM | > 25 µM | > 25 µM | > 25 µM | > 25 µM | > 25 µM | > 25 µM
CCCCCCCCCCCCCCCC1=NC(C)(C)CN1C(C)C | 1.55 µM | 2.93 µM | 1.22 µM | 2.46 µM | 1.61 µM | 3.1 µM | 1.77 µM | 3.31 µM | 2.13 µM | 6.6 µM | 1.68 µM | 3.04 µM | 1.63 µM | 2.98 µM | 1.44 µM | 2.93 µM | 1.63 µM | 2.98 µM | 1.62 µM | 3.87 µM
CCN(CC)C(=S)[S][Bi]([S]C(=S)N(CC)CC)[S]C(=S)N(CC)CC | 0.539 µM | 1.07 µM | 0.0858 µM | 0.247 µM | 0.133 µM | 0.338 µM | 0.178 µM | 0.384 µM | 2.07 µM | 4.18 µM | 0.634 µM | 1.7 µM | 0.195 µM | 0.436 µM | 0.984 µM | 2.2 µM | 1.9 µM | 3.39 µM | 2.64 µM | 5.87 µM
Cc1cccc(Cc2cnc(NC(=O)CCc3ccc(C)o3)s2)c1 | 0.798 µM | > 100 µM | 0.242 µM | > 100 µM | 0.45 µM | 23.8 µM | 15.4 µM | > 100 µM | 8.69 µM | > 100 µM | 0.107 µM | 6.08 µM | 0.202 µM | 0.642 µM | 0.0302 µM | 0.12 µM | 0.345 µM | > 55.6 µM | 0.356 µM | > 95.3 µM
COc1cccc2c1n([O-])c1cccc(OC)c1[n+]2=O | 9.71 µM | 27.3 µM | 3.7 µM | 64.3 µM | 20.9 µM | > 100 µM | 9.69 µM | 28.7 µM | 6.1 µM | 28.8 µM | 3.59 µM | 14.9 µM | 7.85 µM | > 100 µM | 10.9 µM | 36.2 µM | 11 µM | 36.7 µM | 8.87 µM | 60.1 µM
